Like-named read-outs stand apart in the source and are kept apart here.
Key:
[1] = tested on: bloodstream forms of Trypanosoma brucei brucei; assay: resazurin-based antitrypanosomal inhibition assay; type: cell-based; conditions: for pIC50 T. b. b.: Table 2
Method: Parasites were axenically cultivated in sterile vented flasks containing complete Hirumi’s modified Iscove’s medium 9 (HMI-9) [500 mL IMDM (Iscove’s modified Dulbecco’s medium) (Gibco, Waltham, MA, USA) supplemented with 10% (v/v) heat-inactivated fetal bovine serum (HIFBS) (Sigma Aldrich), 10% (v/v) serum plus (Sigma Aldrich), HMI-9 supplement (1 mM hypoxanthine, 0.16 mM thymidine, 50 µM bathocuproine disulfonic acid, 1.5 mM cysteine, 1.25 Mm pyruvic acid, 0.2 mM 2-mercaptoethanol (Sigma Aldrich)), and 1% (v/v) penicillin–streptomycin (Sigma Aldrich) and incubated at 37 °C in a 5% CO2 atmosphere.
The in vitro inhibitory potency of the 400 MMVPB compounds against bloodstream forms of Trypanosoma brucei brucei was evaluated using the resazurin-based inhibition assay as previously described. Briefly, parasites at their mid-logarithmic growth phase were counted, and the cell density was adjusted with fresh complete HMI-9 medium to 2 × 10^5 trypanosomes per mL. Then, 90 µL of parasite suspension was then distributed into the wells of 96-well flat-bottomed plates containing 10 µL of compounds for a final test concentration of 10 µM. […] Each assay plate was set up in duplicate and repeated two times. The percent parasite inhibition was determined for each compound based on fluorescence readouts relative to the mean fluorescence of negative control wells.
y = 100/[1+ 10^(logIC50/99-x)H], where H is the hill coefficient or slope factor [60].

Vero cells = assay: cytotoxicity against Vero cells (resazurin viability assay); conditions: read-out: CC50 Vero; Table 2
Method: (§1) The resulting pellet was resuspended and counted in a Neubauer chamber in the presence of trypan blue to exclude nonviable cells colored in blue. Once the cell load was estimated, they were either used for the next passage in a new flask or processed for the cytotoxicity assay.
(§2) Briefly, Vero cells at a density of 10^4 cells per well were plated in 100 µL of complete DMEM and incubated overnight to allow cell attachment. Plates were then controlled under an inverted fluorescence microscope (Lumascope LS520) to ensure adherence, sterility and cell integrity. Thereafter, culture medium from each well was carefully emptied, and plates were filled with 90 µL of fresh complete medium followed by the addition of 10 µL of serial 5-fold dilutions of compound solutions. […] Fluorescence was then read using a Magelan Infinite M200 fluorescence multiwell plate reader (Tecan) with excitation and emission wavelengths of 530 and 590 nm, respectively. The percentage of cell viability was calculated from readouts, and the median cytotoxic concentration (CC50) for each compound was deduced from concentration–response curves using GraphPad Prism 8.0 software as described above. Selectivity indexes were then determined for each test substance as follows: SI = CC50(Vero cells)/IC50(T. brucei brucei).

[2] = tested on: kinetoplastids (T. brucei brucei and T. brucei rhodesiense); design: method as in MMV Pathogen Box supporting information; conditions: against kinetoplastids; ref MMV Pathogen Box supporting information; read-out: Reported IC50; cited from earlier work
in vitro = conditions: African green monkey
Method: as §1, §2

[3] = Table 2, MMVPB compounds with known anti-kinetoplastid activity, read-out: IC50 ± SD T. b. b.
[4] = Trypanosoma brucei, Table 1, reference drugs included in MMVPB, read-out: IC50 ± SD T. b. b.
[5] = Trypanosoma brucei, Table 1, negative log of IC50 in molar, read-out: pIC50 T. b. b. (converted)
[6] = Trypanosoma brucei, Table 4, analogs of MMV675968, solid material, read-out: IC50 ± SD T. b. b.
[7] = Trypanosoma brucei, Table 4, negative log of IC50 in molar, read-out: pIC50 T. b. b. (converted)

| Structure (SMILES) | IC50 [1, 4] [nM] | IC50 [1, 5] [nM] | IC50 [1, 6] [nM] | IC50 [1, 7] [nM] | IC50 [1, 3] [nM] | pIC50 T. b. b. ([1]; negative log of IC50 in molar) | CC50 (Vero cells) [nM] | IC50 [2] [nM] | CC50 at 48 h (in vitro) [nM] |
| --- | --- | --- | --- | --- | --- | --- | --- | --- | --- |
| NCCN(C(=O)c1ccc(Cl)cc1Cl)c1ccc(OCc2ccc(Cl)cc2)cc1 [MMV688371] | – | – | – | – | 1600 ± 100 | 5.79 | 7500 ± 100 | < 130 | – |
| COc1ccc(C2=NN(C3CCCCCC3)C(=O)[C@@H]3CC=CC[C@H]23)cc1OCCCCOc1ccc(-c2nn[nH]n2)cc1 [MMV690027] | – | – | – | – | 2800 ± 70 | 5.55 | > 100000 | 20 | – |
| Clc1ccc(CN2CCN(C3=NCCN3)CC2)cc1Cl [MMV689060] | – | – | – | – | 2400 ± 60 | 5.61 | – | 31600 | – |
| Cc1ccc(S(=O)(=O)Nc2ccc(CN3CCN(C(=O)c4cccc(C#N)c4)CC3)cc2)cc1 [MMV689028] | – | – | – | – | – | – | > 100000 | 140 | – |
| Cc1ncc(-c2ccnc(Nc3ccc(S(C)(=O)=O)cc3)n2)n1C(C)C [MMV676604] | – | – | – | – | 36 ± 1 | 7.44 | 8300 ± 1200 | 260 | – |
| c1ccc(Oc2ccc(-c3cc(N4CCNCC4)[nH]n3)cc2)cc1 [MMV687706] | – | – | – | – | 1900 ± 6 | 5.72 | 41000 ± 6500 | 990 | – |
| Cc1nc(-c2ccccn2)nc(N2CCC(Cc3ccccc3)C2)c1Cl (centres unmarked) [MMV659004] | – | – | – | – | 1900 ± 3 | 5.72 | > 100000 | 6600 | – |
| O=C(NCCc1ccn(-c2ccccc2)n1)C1CCCCC1 [MMV688795] | – | – | – | – | 350 ± 20 | 6.45 | > 100000 | 150 | – |
| COc1ccc(C(=N)N)cc1-c1cn(-c2ccc(C(=N)N)cc2)nn1 [MMV675998] | – | – | – | – | 340 ± 30 | 6.47 | > 100000 | 250 | – |
| CO[C@@H](C(=O)N1Cc2[nH]nc(NC(=O)c3ccc(N4CCN(C)CC4)cc3)c2C1)c1ccccc1 [MMV676600] | – | – | – | – | 650 ± 7 | 6.18 | > 100000 | 1020 | – |
| COc1ccc(NC(=O)c2ccc3nc(N)nc(N)c3c2)cc1 [Analog 11] | – | – | 4000 ± 1300 | 3980 | – | – | – | – | 22900 ± 500 |
| CC(=O)Nc1ccc(-c2noc(CC3CCCN(Cc4cccc(F)c4C)C3)n2)cc1 (centres unmarked) [MMV689061] | – | – | – | – | 1900 ± 100 | 5.72 | > 100000 | 32300 | – |
| N=C(N)Nc1ccc(-c2ccc(-c3ccc(N=C(N)N)c(Cl)c3)o2)cc1Cl [MMV688271] | – | – | – | – | 1070 ± 160 | 5.97 | > 100000 | 600 | – |
| N=C(N)c1ccc(-c2cc(-c3ccccc3)on2)cc1 [MMV688514] | – | – | – | – | 3200 ± 300 | 5.49 | 17000 ± 2500 | 4060 | – |
| COc1ccc(NCc2ccc3nc(N)nc(N)c3c2Cl)cc1OC [Analog 2] | – | – | 2400 ± 70 | 2400 | – | – | – | – | 18200 ± 3080 |
| CC1CCCCN1C(=O)NCCc1coc(-c2ccc(F)cc2)n1 (centres unmarked) [MMV688797] | – | – | – | – | 60 ± 20 | 7.22 | > 100000 | 130 | – |
| COc1cccc(CNCc2cnc(N)nc2N)c1 [Analog 18] | – | – | > 10000 | – | – | – | – | – | > 100000 |
| Cc1cccnc1NC(=O)c1cccc(OCc2c(C)noc2C)c1 [MMV688793] | – | – | – | – | 360 ± 40 | 6.44 | > 100000 | 2070 | – |

| Structure (SMILES) | IC50 [1, 4] [nM] | IC50 [1, 5] [nM] | IC50 [1, 6] [nM] | IC50 [1, 7] [nM] | IC50 [1, 3] [nM] | pIC50 T. b. b. ([1]; negative log of IC50 in molar) | CC50 (Vero cells) [nM] | IC50 [2] [nM] | CC50 at 48 h (in vitro) [nM] |
| --- | --- | --- | --- | --- | --- | --- | --- | --- | --- |
| CS(=O)(=O)c1ccccc1C(=O)N(Cc1ccccc1)c1ccccc1 [MMV688798] | – | – | – | – | 300 ± 25 | 6.52 | – | 555 | – |
| COc1ccccc1NC(=O)c1ccc2nc(N)nc(N)c2c1 [Analog 13] | – | – | 3200 ± 300 | 3240 | – | – | – | – | > 100000 |
| COc1ccccc1NCc1cnc(N)nc1N [Analog 16] | – | – | > 10000 | – | – | – | – | – | > 100000 |
| COc1ccc(NCc2ccc3nc(N)nc(N)c3c2)cc1OC [Analog 6] | – | – | 560 ± 70 | 562 | – | – | – | – | > 100000 |
| COc1ccc(NC(=O)c2ccc3nc(N)nc(N)c3c2)cc1OC [Analog 12] | – | – | > 10000 | – | – | – | – | – | > 100000 |
| O=C(Nc1ccc2c(c1)B(O)OC2)c1ccccc1C(F)(F)F [MMV652003] | – | – | – | – | 60 ± 40 | 7.22 | > 100000 | 150 | – |
| COc1ccc(NC(=O)c2cnc(N)nc2N)cc1OC [Analog 24] | – | – | > 10000 | – | – | – | – | – | > 100000 |
| COc1ccc(NCc2cnc(N)nc2N)cc1 [Analog 17] | – | – | > 10000 | – | – | – | – | – | > 100000 |
| CC1=Nc2ccc(Cl)cc2C(c2ccccc2)N1CCNC(=O)CN(C)C (centres unmarked) [MMV688410] | – | – | – | – | 8500 ± 100 | 5.07 | – | 3800 | – |
| Cc1ccccc1NCc1ccc2nc(N)nc(N)c2c1 [Analog 9] | – | – | 190 ± 3 | 191 | – | – | – | – | 22000 ± 1300 |
| CCCCN(CCCC)c1c(C#N)cc(S(=O)(=O)Nc2ccccc2)cc1C#N [MMV688467] | – | – | – | – | 3100 ± 500 | 5.50 | > 100000 | 300 | – |
| O=C(NCc1nnc2n1CCCCC2)c1ccc(-c2ccc(F)cc2)o1 [MMV688796] | – | – | – | – | 30 ± 10 | 7.52 | > 100000 | 100 | – |
| COc1ccc(NCc2ccc3nc(N)nc(N)c3c2Cl)cc1 [Analog 4] | – | – | 2500 ± 150 | 2510 | – | – | – | – | 16900 ± 200 |
| COc1ccc(S(=O)(=O)Nc2ccc(CN3CCN(C(=O)c4cccc(C#N)c4)CC3)cc2)cc1 [MMV689029] | – | – | – | – | 1300 ± 600 | 5.88 | > 100000 | 500 | – |
| Cc1ccccc1NCc1ccc2nc(N)nc(N)c2c1Cl [Analog 5] | – | – | 2300 ± 200 | 2290 | – | – | – | – | > 100000 |
| Cc1ccccc1NC(=O)c1cnc(N)nc1N [Analog 23] | – | – | > 10000 | – | – | – | – | – | > 100000 |
| CNC(=O)C1Cc2ccccc2N1C(=O)Cc1ccc(F)cc1 (centres unmarked) [MMV188296] | – | – | – | – | 1010 ± 250 | 5.99 | > 100000 | 490 | – |

Further lines, with some results ahead:

| IC50 [1, 4] [nM] | IC50 [1, 5] [nM] | IC50 [1, 6] [nM] | IC50 [1, 7] [nM] | Structure (SMILES) | IC50 [1, 3] [nM] | pIC50 T. b. b. ([1]; negative log of IC50 in molar) | CC50 (Vero cells) [nM] | IC50 [2] [nM] | CC50 at 48 h (in vitro) [nM] |
| --- | --- | --- | --- | --- | --- | --- | --- | --- | --- |
| 1500 ± 30 | 1580 | – | – | CCN(CC)CCCCCCNc1cc(OC)cc2c(C)ccnc12 [MMV000063, Sitamaquine, reference compound] | – | – | – | – | > 100000 |
| 200 ± 90 | 200 | – | – | CC1CS(=O)(=O)CCN1/N=C/c1ccc([N+](=O)[O-])o1 (centres unmarked) [MMV001499, Nifurtimox, reference compound] | – | – | – | – | > 100000 |
| 80 ± 10 | 81.3 | – | – | Cc1ccc(C(=O)Nc2ccc(S(=O)(=O)O)c3cc(S(=O)(=O)O)cc(S(=O)(=O)O)c23)cc1NC(=O)c1cccc(NC(=O)Nc2cccc(C(=O)Nc3cc(C(=O)Nc4ccc(S(=O)(=O)O)c5cc(S(=O)(=O)O)cc(S(=O)(=O)O)c45)ccc3C)c2)c1 [MMV637953, Suramine, reference compound] | – | – | – | – | > 100000 |
| 1600 ± 8 | 1580 | – | – | OC(c1cc(C(F)(F)F)nc2c(C(F)(F)F)cccc12)C1CCCCN1 (centres unmarked) [MMV000016, Mefloquine, reference compound] | – | – | – | – | 11300 |

From PMC9571290, “Preliminary Structure–Activity Relationship Study of the MMV Pathogen Box Compound MMV675968 (2,4-Diaminoquinazoline) Unveils Novel Inhibitors of Trypanosoma brucei brucei” (Molecules, 2022)
